The source of these data is ChEMBL document CHEMBL1155914 (Bioorg Med Chem, 2008).

Test [1] deals with T1, Acetylcholinesterase (Electrophorus electricus, UniProt O42275).
Description: Inhibition of Electrophorus electricus AChE by spectrophotometry
The target in test [2] is Acetylcholinesterase (Homo sapiens, UniProt P22303).
Description: Inhibition of human erythrocyte AChE by Ellman's method
In test [3] the target is T1, Acetylcholinesterase. This is another data set of the same source.
Description: Inhibition of Electrophorus electricus AChE by Ellman's method
Test [4] has as its system SH-SY5Y. The test is described as follows: cells. Particulars: Homo sapiens, read-out: INH.
Description: Inhibition of potassium chloride-induced cytosolic calcium levels in human SH-SY5Y cells at 0.3 uM by fluorescence method relative to control
For another test, the target named is Cholinesterase (Homo sapiens, UniProt P06276).
Sequence of Cholinesterase (P06276 whole entry): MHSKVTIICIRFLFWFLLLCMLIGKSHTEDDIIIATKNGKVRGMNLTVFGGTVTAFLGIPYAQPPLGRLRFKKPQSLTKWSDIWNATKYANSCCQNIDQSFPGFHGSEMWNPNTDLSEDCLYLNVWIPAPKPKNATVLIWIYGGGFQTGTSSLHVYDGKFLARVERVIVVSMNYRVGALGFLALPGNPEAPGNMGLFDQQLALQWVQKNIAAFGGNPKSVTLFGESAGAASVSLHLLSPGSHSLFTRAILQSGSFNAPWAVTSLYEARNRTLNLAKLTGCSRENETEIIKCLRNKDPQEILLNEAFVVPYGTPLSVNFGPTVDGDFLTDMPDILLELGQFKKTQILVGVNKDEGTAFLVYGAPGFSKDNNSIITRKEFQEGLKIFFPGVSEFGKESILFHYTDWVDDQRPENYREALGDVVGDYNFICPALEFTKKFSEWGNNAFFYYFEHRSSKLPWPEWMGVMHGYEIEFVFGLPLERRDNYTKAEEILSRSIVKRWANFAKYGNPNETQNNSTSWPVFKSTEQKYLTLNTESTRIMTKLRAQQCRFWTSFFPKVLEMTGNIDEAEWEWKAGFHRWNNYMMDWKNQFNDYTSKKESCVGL
Test [5] has as its system SH-SY5Y. Put plainly: Antioxidant activity in human SH-SY5Y cells assessed as decrease in H2O2-induced reactive oxygen species generation at 0.3 uM by fluorescence method. On the set-up: scale not given: the % may be the effect or the level left. Type of test: functional.

Where only a bound is given, the exact number is not on record here.

Sequence of Acetylcholinesterase (Homo sapiens, UniProt P22303) (P22303 whole entry): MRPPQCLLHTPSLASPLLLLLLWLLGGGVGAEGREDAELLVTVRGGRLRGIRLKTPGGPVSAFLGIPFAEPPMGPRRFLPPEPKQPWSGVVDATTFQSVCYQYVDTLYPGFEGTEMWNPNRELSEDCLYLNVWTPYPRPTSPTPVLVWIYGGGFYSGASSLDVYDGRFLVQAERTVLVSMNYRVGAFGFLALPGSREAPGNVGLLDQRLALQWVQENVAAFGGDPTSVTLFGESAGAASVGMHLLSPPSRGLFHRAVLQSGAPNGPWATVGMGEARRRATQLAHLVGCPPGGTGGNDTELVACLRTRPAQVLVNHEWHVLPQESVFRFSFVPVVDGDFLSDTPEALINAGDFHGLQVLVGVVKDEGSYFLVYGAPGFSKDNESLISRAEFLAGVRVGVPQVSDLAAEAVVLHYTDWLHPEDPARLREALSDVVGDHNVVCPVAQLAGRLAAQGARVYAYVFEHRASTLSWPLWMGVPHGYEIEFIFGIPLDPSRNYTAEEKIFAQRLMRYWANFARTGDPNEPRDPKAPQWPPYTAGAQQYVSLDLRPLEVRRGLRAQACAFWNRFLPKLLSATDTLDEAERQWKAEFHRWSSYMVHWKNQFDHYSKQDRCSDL
T1 sequence (O42275 whole entry): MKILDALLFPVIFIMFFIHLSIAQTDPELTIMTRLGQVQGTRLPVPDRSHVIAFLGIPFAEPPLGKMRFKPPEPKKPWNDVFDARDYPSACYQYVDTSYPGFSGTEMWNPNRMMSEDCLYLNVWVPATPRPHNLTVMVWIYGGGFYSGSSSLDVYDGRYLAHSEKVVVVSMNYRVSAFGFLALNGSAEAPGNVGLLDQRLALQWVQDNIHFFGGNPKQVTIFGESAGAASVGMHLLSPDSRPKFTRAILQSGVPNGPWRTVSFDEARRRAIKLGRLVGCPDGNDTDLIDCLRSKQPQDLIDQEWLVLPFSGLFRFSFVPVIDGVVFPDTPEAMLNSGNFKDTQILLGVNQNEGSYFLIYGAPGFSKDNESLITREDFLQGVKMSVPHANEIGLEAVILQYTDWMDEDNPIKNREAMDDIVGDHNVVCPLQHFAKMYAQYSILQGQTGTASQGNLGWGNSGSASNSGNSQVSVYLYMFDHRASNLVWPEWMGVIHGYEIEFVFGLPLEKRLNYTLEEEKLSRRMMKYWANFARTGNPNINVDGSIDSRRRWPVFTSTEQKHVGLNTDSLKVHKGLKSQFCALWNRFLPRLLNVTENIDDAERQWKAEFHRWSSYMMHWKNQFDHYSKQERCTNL

Take `Cc1ccc(C2C3=C(CC(C)(C)CC3=O)Oc3nc4c(c(N)c32)CCCC4)cc1` (centres undefined): 52000 nM corresponded to half-maximal inhibition against Acetylcholinesterase [1] (IC50).
Regarding `CC1(C)CC(=O)C2=C(C1)Oc1nc3c(c(N)c1C2c1ccc(F)cc1)CCCC3` (centres undefined), the midpoint of inhibition at Acetylcholinesterase [1], the IC50, lay at 70000 nM.
`COc1ccc(C2C3=C(CC(C)(C)CC3=O)Oc3nc4c(c(N)c32)CCCC4)cc1` (centres undefined): inhibition at Acetylcholinesterase [1] was half-maximal at 4100 nM (IC50).
Turning to `COc1ccc(C2C3=C(CC(C)(C)CC3=O)Nc3nc4c(c(N)c32)CCCC4)cc1` (centres undefined), the IC50 (commonly the point on the concentration scale where inhibition reaches its midpoint) at Acetylcholinesterase [1] was 220 nM; at Acetylcholinesterase [2], 370 nM; at Cholinesterase it was over 100000 nM. Moreover, the Ki (as a rule, the dissociation constant of the complex between target and ligand, obtained from inhibition or displacement) on Acetylcholinesterase [3] was determined as 41.9 nM. In the test on SH-SY5Y [4], the inhibition at 0.3 µM worked out at 31%. The Activity in the test with SH-SY5Y [5] is reported as 87.8%.
In the case of `CCOC(=O)c1c(C)nc2nc3c(c(N)c2c1-c1ccncc1)CCCC3`, 1400 nM corresponded to half-maximal inhibition against Acetylcholinesterase [1] (IC50).
Consider `CC[N+](C)(CC)CCC[n+]1c(-c2ccccc2)c2cc(N)ccc2c2ccc(N)cc21` [PROPIDIUM], for which the Ki at Acetylcholinesterase [3] was 6800 nM.
As to `Cc1ccc(C2C3=C(CC(C)(C)CC3=O)Nc3nc4c(c(N)c32)CCCC4)cc1` (centres undefined), the IC50 at Acetylcholinesterase [1] is 230 nM; against Acetylcholinesterase [2], 670 nM; on Cholinesterase, over 100000 nM. The same compound registered a Ki on Acetylcholinesterase [3] of 38.9 nM. For the same compound, the inhibition at 0.3 µM in the test on SH-SY5Y [4] is 30.9%. Moreover, in the test on SH-SY5Y [5], the Activity was found to be 79.9%.
`CCOC(=O)C1=C(C)Oc2nc3c(c(N)c2C1c1ccc(OC)cc1)CCCC3` (centres undefined): on Acetylcholinesterase [1], the IC50 was determined as 870 nM.
Turning to `CC1(C)CC(=O)C2=C(C1)Nc1nc3c(c(N)c1C2c1ccc(F)cc1)CCCC3` (centres undefined), the IC50 against Acetylcholinesterase [1] was 540 nM; against Acetylcholinesterase [2] it was 1600 nM; on Cholinesterase it was over 100000 nM. In addition, the Ki on Acetylcholinesterase [3] worked out at 106 nM. For the same compound, the inhibition at 0.3 µM in the test on SH-SY5Y [4] came out at 32.9%. Moreover, the Activity in the test with SH-SY5Y [5] is listed as 95.7%.
In the case of `CC1(C)CC(=O)C2=C(C1)Nc1nc3c(c(N)c1C2c1ccncc1)CCCC3` (centres undefined), the results for the IC50 on Acetylcholinesterase [1], against Acetylcholinesterase [2] and on Cholinesterase were 600 nM, 2800 nM and over 100000 nM, respectively. Besides, on Acetylcholinesterase [3], affinity was put at a Ki of 157 nM. In the test with SH-SY5Y [4], the inhibition at 0.3 µM turned out to be 45.1%. Also, in the test on SH-SY5Y [5], the Activity was 82.9%.
As for `CCOC(=O)c1c(C)nc2nc3c(c(N)c2c1-c1ccccc1)CCCC3`, at Acetylcholinesterase [1], the midpoint of inhibition, the IC50, lay at 820 nM.
Consider `CCOC(=O)C1=C(C)Oc2nc3c(c(N)c2C1c1ccncc1)CCCC3` (centres undefined), for which the IC50 against Acetylcholinesterase [1] was found to be 3000 nM.
The compound `CC1(C)CC(=O)C2=C(C1)Oc1nc3c(c(N)c1C2c1ccccc1)CCCC3` (centres undefined) came in with an IC50 at Acetylcholinesterase [1] of 49000 nM.
With `CC1(C)CC(=O)C2=C(C1)Nc1nc3c(c(N)c1C2c1ccccc1)CCCC3` (centres undefined), the IC50 against Acetylcholinesterase [1] is 320 nM; against Acetylcholinesterase [2], 710 nM; against Cholinesterase it was over 100000 nM. The compound also gave a Ki on Acetylcholinesterase [3] of 61.3 nM. In the test with SH-SY5Y [4], the inhibition at 0.3 µM amounted to 24.6%. The Activity in the test with SH-SY5Y [5] was determined as 87.9%.
